Species: Rattus norvegicus
Test: Open TG-GATES - Regimen: Daily Repeat
Format: toxicity, organism-based, Sprague-Dawley
Parameters: regimen Daily Repeat, gender Male, age 6 weeks
Details: in vivo, iv, route intravenous injection; for KIDNEY_L / KIDNEY_R / KIDNEY_TOTAL: tissue Kidney; for LIVER: tissue Liver; for ALP / ALT / AST / CRE / DBIL / GLC / IP / K / LDH / PL / RALB / TBIL / TC / TG / TP / gamma-GTP / Na / Ca / BUN: tissue Plasma
[1] = 3 mg/kg, 72 h, dose level Middle, time 3 day
[2] = 3 mg/kg, 72 h, tissue Blood, dose level Middle, time 3 day
[3] = 3 mg/kg, […], dose level Middle, time 7 day
[4] = 3 mg/kg, […], dose level Middle, time 14 day
[5] = 3 mg/kg, […], dose level Middle, time 28 day
[6] = 3 mg/kg, […], tissue Blood, dose level Middle, time 7 day
[7] = 3 mg/kg, […], tissue Blood, dose level Middle, time 14 day
[8] = 3 mg/kg, […], tissue Blood, dose level Middle, time 28 day
[9] = 10 mg/kg, 72 h, dose level High, time 3 day
[10] = 10 mg/kg, 72 h, tissue Blood, dose level High, time 3 day
[11] = 10 mg/kg, […], dose level High, time 7 day
[12] = 10 mg/kg, […], dose level High, time 14 day
[13] = 10 mg/kg, […], dose level High, time 28 day
[14] = 10 mg/kg, […], tissue Blood, dose level High, time 7 day
[15] = 10 mg/kg, […], tissue Blood, dose level High, time 14 day
[16] = 10 mg/kg, […], tissue Blood, dose level High, time 28 day

CARBOPLATIN
TERMINAL_BW [1]: 220.6 g
APTT [2]: 24.1 s
Bas [2]: 0%
Eos [2]: 1.2%
Fbg [2]: 324.4 mg/dL
Ht [2]: 41.2%
Lym [2]: 74.6%
MCHC [2]: 32.6%
MCV [2]: 62.7 fL
Mono [2]: 3%
Neu [2]: 20.6%
PT [2]: 16.5 s
Plat [2]: 127.4 x10_4/uL
RBC [2]: 657.4 x10_4/ul
Ret [2]: 4%
WBC [2]: 89.9 x10_2/uL
KIDNEY_L [1]: 0.9 g
KIDNEY_R [1]: 0.9 g
KIDNEY_TOTAL [1]: 1.9 g
LIVER [1]: 9.8 g
ALP [1]: 1530.2 IU/L
ALT [1]: 43 IU/L
AST [1]: 74.8 IU/L
CRE [1]: 0.2 mg/dL
DBIL [1]: 0 mg/dL
GLC [1]: 173.6 mg/dL
IP [1]: 7.1 mg/dL
K [1]: 4.7 meq/L
LDH [1]: 185.8 IU/L
PL [1]: 129.2 mg/dL
RALB [1]: 3.1 g/dL
TBIL [1]: 0.004 mg/dL
TC [1]: 65 mg/dL
TG [1]: 104.6 mg/dL
TP [1]: 5.5 g/dL
gamma-GTP [1]: 1.4 IU/L
TERMINAL_BW [3]: 244.7 g
TERMINAL_BW [4]: 304.5 g
TERMINAL_BW [5]: 349.4 g
APTT [6]: 23.6 s
Bas [6]: 0%
Eos [6]: 0.8%
Fbg [6]: 296.2 mg/dL
MCHC [6]: 32.4%
MCV [6]: 62.2 fL
Mono [6]: 2.4%
Neu [6]: 16.6%
Plat [6]: 130.4 x10_4/uL
RBC [6]: 649.2 x10_4/ul
Ret [6]: 4.6%
WBC [6]: 97.3 x10_2/uL
APTT [7]: 25.4 s
Bas [7]: 0%
Eos [7]: 0.6%
Fbg [7]: 327 mg/dL
Hb [7]: 14 g/dL
Ht [7]: 41.1%
Lym [7]: 86%
MCHC [7]: 34%
MCV [7]: 61.4 fL
Mono [7]: 3.2%
Neu [7]: 9.2%
Plat [7]: 119.2 x10_4/uL
RBC [7]: 670 x10_4/ul
Ret [7]: 2.8%
WBC [7]: 100.3 x10_2/uL
APTT [8]: 26.7 s
Bas [8]: 0%
Eos [8]: 0.8%
Fbg [8]: 332.2 mg/dL
Ht [8]: 42.1%
Lym [8]: 83%
MCH [8]: 19 pg
MCHC [8]: 35.1%
MCV [8]: 54.2 fL
Mono [8]: 2.8%
Plat [8]: 118.9 x10_4/uL
RBC [8]: 777.6 x10_4/ul
Ret [8]: 1.9%
WBC [8]: 87.9 x10_2/uL
KIDNEY_L [3]: 1.1 g
KIDNEY_R [3]: 1.1 g
KIDNEY_TOTAL [3]: 2.1 g
KIDNEY_L [4]: 1.3 g
KIDNEY_R [4]: 1.3 g
KIDNEY_TOTAL [4]: 2.5 g
KIDNEY_L [5]: 1.3 g
KIDNEY_R [5]: 1.3 g
KIDNEY_TOTAL [5]: 2.6 g
LIVER [3]: 11.2 g
LIVER [4]: 13.5 g
LIVER [5]: 13.9 g
ALP [3]: 1757.2 IU/L
ALT [3]: 40.6 IU/L
AST [3]: 82.6 IU/L
CRE [3]: 0.2 mg/dL
DBIL [3]: 0 mg/dL
GLC [3]: 169.6 mg/dL
IP [3]: 7 mg/dL
K [3]: 4.7 meq/L
LDH [3]: 186 IU/L
Na [3]: 140 meq/L
PL [3]: 143 mg/dL
RALB [3]: 3.1 g/dL
TBIL [3]: 0.006 mg/dL
TC [3]: 70.4 mg/dL
TG [3]: 110 mg/dL
TP [3]: 5.6 g/dL
gamma-GTP [3]: 1.6 IU/L
ALP [4]: 1299.2 IU/L
ALT [4]: 41.4 IU/L
AST [4]: 84.2 IU/L
CRE [4]: 0.2 mg/dL
Ca [4]: 11 mg/dL
DBIL [4]: 0 mg/dL
GLC [4]: 170.4 mg/dL
IP [4]: 6.8 mg/dL
K [4]: 4.4 meq/L
LDH [4]: 147 IU/L
PL [4]: 148 mg/dL
RALB [4]: 3.2 g/dL
TBIL [4]: 0.006 mg/dL
TC [4]: 74.2 mg/dL
TG [4]: 131.2 mg/dL
TP [4]: 6 g/dL
gamma-GTP [4]: 3.4 IU/L
ALP [5]: 1001.8 IU/L
ALT [5]: 40.6 IU/L
AST [5]: 78 IU/L
BUN [5]: 18 mg/dL
CRE [5]: 0.2 mg/dL
Ca [5]: 11 mg/dL
DBIL [5]: 0 mg/dL
GLC [5]: 179.6 mg/dL
IP [5]: 6.1 mg/dL
K [5]: 4.2 meq/L
LDH [5]: 131 IU/L
PL [5]: 134.2 mg/dL
RALB [5]: 3.2 g/dL
TBIL [5]: 0.004 mg/dL
TC [5]: 72.4 mg/dL
TG [5]: 96 mg/dL
TP [5]: 6.3 g/dL
gamma-GTP [5]: 2 IU/L
TERMINAL_BW [9]: 210.3 g
APTT [10]: 23.5 s
Bas [10]: 0%
Eos [10]: 1.2%
Fbg [10]: 288 mg/dL
Hb [10]: 13 g/dL
Ht [10]: 39.9%
Lym [10]: 85.8%
MCHC [10]: 32.7%
MCV [10]: 62.8 fL
Mono [10]: 3.2%
Neu [10]: 8.8%
PT [10]: 16.4 s
Plat [10]: 122.5 x10_4/uL
RBC [10]: 635.4 x10_4/ul
Ret [10]: 2.7%
WBC [10]: 75.4 x10_2/uL
KIDNEY_L [9]: 0.9 g
KIDNEY_R [9]: 1 g
KIDNEY_TOTAL [9]: 1.9 g
LIVER [9]: 9.3 g
ALP [9]: 1408.4 IU/L
ALT [9]: 33.8 IU/L
BUN [9]: 16.4 mg/dL
CRE [9]: 0.2 mg/dL
DBIL [9]: 0.002 mg/dL
GLC [9]: 170.4 mg/dL
IP [9]: 7 mg/dL
K [9]: 4.6 meq/L
Na [9]: 140.2 meq/L
PL [9]: 129.6 mg/dL
RALB [9]: 3.1 g/dL
TBIL [9]: 0.008 mg/dL
TC [9]: 63.2 mg/dL
TG [9]: 84.4 mg/dL
TP [9]: 5.5 g/dL
gamma-GTP [9]: 1.4 IU/L
TERMINAL_BW [11]: 215.5 g
TERMINAL_BW [12]: 246.4 g
TERMINAL_BW [13]: 260.5 g
APTT [14]: 27.1 s
Bas [14]: 0%
Eos [14]: 0.8%
Fbg [14]: 285.8 mg/dL
Hb [14]: 13.7 g/dL
Ht [14]: 41.4%
Lym [14]: 83.6%
MCV [14]: 62.3 fL
Mono [14]: 4.8%
Neu [14]: 9.6%
PT [14]: 15.7 s
Plat [14]: 124.5 x10_4/uL
RBC [14]: 665.8 x10_4/ul
Ret [14]: 1.5%
WBC [14]: 46.7 x10_2/uL
APTT [15]: 26.8 s
Bas [15]: 0%
Eos [15]: 0.4%
Fbg [15]: 299.6 mg/dL
Hb [15]: 14.1 g/dL
Lym [15]: 80.8%
MCHC [15]: 33.9%
MCV [15]: 59.3 fL
Mono [15]: 4.6%
Plat [15]: 50.2 x10_4/uL
RBC [15]: 701 x10_4/ul
Ret [15]: 0.8%
WBC [15]: 57.1 x10_2/uL
APTT [16]: 25.4 s
Bas [16]: 0%
Eos [16]: 0%
Fbg [16]: 275.2 mg/dL
Hb [16]: 11.8 g/dL
Ht [16]: 33.8%
Lym [16]: 81%
MCHC [16]: 34.8%
MCV [16]: 55.8 fL
Mono [16]: 3.6%
PT [16]: 15.6 s
Plat [16]: 66.5 x10_4/uL
RBC [16]: 607.8 x10_4/ul
Ret [16]: 3.1%
WBC [16]: 60.4 x10_2/uL
KIDNEY_L [11]: 0.9 g
KIDNEY_R [11]: 1 g
KIDNEY_TOTAL [11]: 1.9 g
KIDNEY_L [12]: 1.1 g
KIDNEY_R [12]: 1.1 g
KIDNEY_TOTAL [12]: 2.2 g
KIDNEY_L [13]: 1.2 g
KIDNEY_R [13]: 1.2 g
KIDNEY_TOTAL [13]: 2.4 g
LIVER [11]: 8.8 g
ALP [11]: 1401.8 IU/L
ALT [11]: 41.4 IU/L
AST [11]: 102 IU/L
CRE [11]: 0.2 mg/dL
DBIL [11]: 0.002 mg/dL
GLC [11]: 170.8 mg/dL
IP [11]: 7.3 mg/dL
K [11]: 4.4 meq/L
Na [11]: 140.4 meq/L
PL [11]: 118.6 mg/dL
RALB [11]: 3.2 g/dL
TBIL [11]: 0.012 mg/dL
TC [11]: 66 mg/dL
TG [11]: 38.2 mg/dL
TP [11]: 6 g/dL
gamma-GTP [11]: 1 IU/L
ALP [12]: 1127 IU/L
ALT [12]: 48 IU/L
AST [12]: 93.2 IU/L
BUN [12]: 16.6 mg/dL
CRE [12]: 0.2 mg/dL
DBIL [12]: 0 mg/dL
GLC [12]: 170.4 mg/dL
IP [12]: 6.6 mg/dL
K [12]: 4.5 meq/L
LDH [12]: 161 IU/L
PL [12]: 139.8 mg/dL
RALB [12]: 3.2 g/dL
TBIL [12]: 0.016 mg/dL
TC [12]: 74.8 mg/dL
TG [12]: 83.4 mg/dL
TP [12]: 5.8 g/dL
gamma-GTP [12]: 1.8 IU/L
ALP [13]: 682.8 IU/L
ALT [13]: 40 IU/L
AST [13]: 97.8 IU/L
BUN [13]: 22 mg/dL
CRE [13]: 0.2 mg/dL
DBIL [13]: 0.016 mg/dL
GLC [13]: 170 mg/dL
IP [13]: 6.2 mg/dL
K [13]: 4.5 meq/L
LDH [13]: 533 IU/L
PL [13]: 127.8 mg/dL
RALB [13]: 3 g/dL
TBIL [13]: 0.052 mg/dL
TC [13]: 78.6 mg/dL
TG [13]: 48.8 mg/dL
TP [13]: 6 g/dL
gamma-GTP [13]: 1.8 IU/L
